Reference: US12473533B2, “Gene targets for T-cell-based immunotherapy” (The Regents of the University of California, priority 2018, dated 2025)

Test system: primary human T cells
Test: Genome-wide SLICE pooled CRISPR screen: CFSE-sorted proliferation after TCR stimulation
Type: cell-based
Conditions: log2 fold-change of sgRNA, dividing over non-dividing cells; positive hits from GW screen
Text: To take full advantage of this platform, we scaled-up from the targeted pilot screen to genome-wide (GW) scale (Doench et al., 2016), transducing a library of 77,441 sgRNAs (19,114 genes) into T cells from two healthy donors. After confirming successful transduction of these primary human T cells (FIG. 8,A-B), the cells were re-stimulated and then FACS sorted into non-proliferating and highly-proliferating populations based on CFSE levels (FIG. 8C and Experimental Procedures). MAGeCK software (Li et al., 2014) was used to systematically identify genes that are positively or negatively selected in the proliferating population of T cells. Top positive and negative regulators from the pilot screen were confirmed in both biological replicates of the GW screen along with numerous other hits (FIG. 2A, B). To hone the list of top candidates, we performed an independent secondary screen in cells from two additional human blood donors. The results were well correlated between the primary and secondary screens (FIG. 2C). Furthermore, integrated analysis of the two independent screens performed on a total of four human blood donors provided improved power for target discovery, particularly for negative regulators of T cell proliferation (FIG. 8D). To confirm that hits are in fact dependent on TCR stimulation, we performed GW screens with increasing levels of TCR stimulation. […] The observed dose-response confirmed that the majority of the screen hits are dependent on the TCR stimulus and serve to tune resulting proliferative responses. Taken together these screens identified dozens of genetic perturbations that positively and negatively modulate T cell proliferation.
24 hours post stimulation, lentivirus was added directly to cultured T cells at a 1:300 v/v ratio and gently mixed by tilting. Following 24 hours, cells were collected, pelleted, and resuspended in Lonza electroporation buffer P3 (Lonza, Cat #V4XP-3032) at 20e6 cells/100 μl. Next, Cas9 protein (MacroLab, Berkeley, 40 μM stock) was added to cell suspension at 1:10 v/v ratio. Cells were electroporated at 20e6 cells per cuvette using the pulse code EH115 (Lonza, cat #VVPA-1002). The total number of cells for electroporation was scaled as required. Immediately after electroporation, 1 mL of pre-warmed media was added to each cuvette and cuvettes were placed at 37 degrees for 20 minutes. Cells were then transferred to culture vessels in X-Vivo media containing 50 U/ml IL-2 at 1e6 cells/ml in appropriate tissue culture vessels. Cells were expanded every two days, adding fresh media with IL-2 at 50 U/ml and maintaining the cell density at 1e6 cells/ml.
Cultured cells were collected, spun, washed with PBS, and then resuspended at 1-10 million cells/ml in PBS. CFSE (Biolegend, Cat #423801) was prepared per the manufacturer's protocol to make a 5 mM stock solution in DMSO. This stock solution was diluted 1:1000 in PBS for a 5 μM working solution, and then added in a 1:1 v/v ratio to cell suspension. After mixing, cells were incubated for 5 minutes in the dark at room temperature. The stain was then quenched with a volume of media that was at least 5× the stain volume (e.g. 2 ml+10 ml), and incubated for one minute at room temperature in the dark. Cells were then spun down and resuspended in media prior to restimulation.
PBMCs from multiple human healthy human donors were isolated from TRIMA residuals (see methods). TRIMA residuals were purchased from Blood Centers of the Pacific. After CD8 T cells isolation as above (Day 0), cells were rested in X-Vivo media overnight and then stimulated with plate-bound anti-human CD3/CD28 and IL-2 at 50 U/mL the following day (Day 1). 24 hours after stimulation (Day 2), cells were transduced with concentrated lentivirus encoding the pooled sgRNA library (see methods). […] after transduction (Day 3), cells were electroporated with CAS9 protein (methods). […]

Sequence	LFC (~effect magnitude)
AAGCGTCAAAAGTCTGCCAG (chemistry not given here) [SEQ ID NO: 9, sgRNA targeting CD5]	0.5512
ACGGACATGAAGCAATATCA (listed as DNA, chemistry not fully specified) [SEQ ID NO: 34, sgRNA targeting TMEM222]	1.0461
AGAGCATTATGGGCAGACAG (listed as DNA, chemistry not fully specified) [SEQ ID NO: 22, sgRNA targeting GNA13]	0.3825
AGATATCACACATTACAGTG (listed as DNA, chemistry not fully specified) [SEQ ID NO: 25, sgRNA targeting RASA2]	0.861
AGGATCGACTTGTGGAACAA (listed as DNA, chemistry not fully specified) [SEQ ID NO: 27, sgRNA targeting RASA2]	0.4134
AGGCTCCAGGAATGTCCGCG (listed as DNA, chemistry not fully specified) [SEQ ID NO: 20, sgRNA targeting DGKZ]	0.4227
AGGTTCCAGGTCCGATCCAG (listed as DNA, chemistry not fully specified) [SEQ ID NO: 10, sgRNA targeting CD8A]	0.8084
AGTTCTACTACAGACCCCCG (chemistry not given here) [SEQ ID NO: 12, sgRNA targeting CDKN1B]	0.8623
CAAGTACCGACGCGCCAGCG (listed as DNA, chemistry not fully specified) [SEQ ID NO: 23, sgRNA targeting MEF2D]	0.7255
CAGCACTAGCAGTGGCACGG (chemistry not given here) [SEQ ID NO: 15, sgRNA targeting DGKA]	0.722
CATCATCCCTCACGGACCCG (listed as DNA, chemistry not fully specified) [SEQ ID NO: 24, sgRNA targeting MEF2D]	0.46
CCACTTGTTAACAGAGACCG (listed as DNA, chemistry not fully specified) [SEQ ID NO: 38, sgRNA targeting TNFAIP3]	0.633
CCAGTACAAACCCCAGAACG (listed as DNA, chemistry not fully specified) [SEQ ID NO: 40, sgRNA targeting UBASH3A]	0.6566
CCCCGTGCAGCGAGTCAGAG (listed as DNA, chemistry not fully specified) [SEQ ID NO: 18, sgRNA targeting DGKZ]	0.4938
CCGCTTTCCAGTGACCGACG (listed as DNA, chemistry not fully specified) [SEQ ID NO: 21, sgRNA targeting FIBP]	0.5586
CCTGTACCCGAATAACCATG (listed as DNA, chemistry not fully specified) [SEQ ID NO: 4, sgRNA targeting ARIH2]	0.3813
CGAAAAAGCAGTTCCGCTGG (listed as DNA, chemistry not fully specified) [SEQ ID NO: 30, sgRNA targeting SOCS1]	0.6088
CGGCGTGCGAACGGAATGTG (listed as DNA, chemistry not fully specified) [SEQ ID NO: 31, sgRNA targeting SOCS1]	0.7842
CGGCTCAGCTGGTATGACCC (chemistry not given here) [SEQ ID NO: 8, sgRNA targeting CD5]	1.4145

Sequence	LFC (~effect magnitude)
CGTGCTGGTGGTTCGCCACG (listed as DNA, chemistry not fully specified) [SEQ ID NO: 39, sgRNA targeting UBASH3A]	1.0191
CTCCCAAACTGACCTCTAGG (listed as DNA, chemistry not fully specified) [SEQ ID NO: 16, sgRNA targeting DGKA]	0.7081
CTCTCCTCAGTACCACAGCA (listed as DNA, chemistry not fully specified) [SEQ ID NO: 19, sgRNA targeting DGKZ]	0.6587
CTTGGCGTCCGTGAAGATGG (listed as DNA, chemistry not fully specified) [SEQ ID NO: 33, sgRNA targeting TCEB2]	0.6135
GAACGCGCTGAGAGTCCGTG (listed as DNA, chemistry not fully specified) [SEQ ID NO: 3, sgRNA targeting AGO1]	0.8318
GAATAAGATGTTCTACGCCG (listed as DNA, chemistry not fully specified) [SEQ ID NO: 17, sgRNA targeting DGKZ]	0.6282
GACTCACTGAGACAAAGTAG (listed as DNA, chemistry not fully specified) [SEQ ID NO: 36, sgRNA targeting TMEM222]	0.8727
GAGAACCTCGGAACATACGG (listed as DNA, chemistry not fully specified) [SEQ ID NO: 28, sgRNA targeting SMARCB1]	0.6271
GAGCAGCGGCTGTACAAGGT (listed as DNA, chemistry not fully specified) [SEQ ID NO: 32, sgRNA targeting TCEB2]	1.0955
GCAGGAAGACCGGCACGAAG (listed as DNA, chemistry not fully specified) [SEQ ID NO: 11, sgRNA targeting CD8A]	0.6365
GGGCAAGTACGAGTGGCAAG (chemistry not given here) [SEQ ID NO: 13, sgRNA targeting CDKN1B]	0.9886
GGGCCCCCAGTAGAATCCGC (listed as DNA, chemistry not fully specified) [SEQ ID NO: 29, sgRNA targeting SOCS1]	1.2551
TATGCCATGAGTGCTCAGAG (listed as DNA, chemistry not fully specified) [SEQ ID NO: 37, sgRNA targeting TNFAIP3]	0.651
TGAGGAGTACAAGCACCGCA (listed as DNA, chemistry not fully specified) [SEQ ID NO: 35, sgRNA targeting TMEM222]	1.3341
TGCACAGAACTATCGTACCA (listed as DNA, chemistry not fully specified) [SEQ ID NO: 5, sgRNA targeting CBLB]	1.9597
TGGACCACGAAGAGTTAACC (chemistry not given here) [SEQ ID NO: 14, sgRNA targeting CDKN1B]	0.8112
TGTGGGATGTCGACTCCTAG (chemistry not given here) [SEQ ID NO: 7, sgRNA targeting CBLB]	0.7876
TTAGCATCAAGGCATGCCAT (listed as DNA, chemistry not fully specified) [SEQ ID NO: 26, sgRNA targeting RASA2]	0.7258
TTCCGCAAAATAGAGCCCCA (listed as DNA, chemistry not fully specified) [SEQ ID NO: 6, sgRNA targeting CBLB]	1.5917
